Reference: patent US7008945B1, “Amide derivatives” (AstraZeneca AB, priority 1999, dated 2006)
pIC50: −log10 of the molar value.

Legend:
p38α = biological target: T1, p38α (Homo sapiens, UniProt Q16539); test: In vitro enzyme assay, p38α; assay type: biochemical; conditions: read-out: IC50 against p38α
T1 construct: c-myc (N); 6His (N); made in house; host or cells: E. coli (PET vectors)
Protocol: (§1) The ability of compounds of the invention to inhibit the enzyme p38 kinase was assessed. Activity of test compounds against each of the p38α and p38β isoforms of the enzyme was determined. […]
(§2) Test compounds were solubilised in DMSO and 10 μl of a 1:10 diluted sample in ‘Kinase Buffer’ was added to a well in a Microtiter plate. […] The precipitated protein was phosphorylated by p38 kinase and test compounds were assessed for their ability to inhibit this phosphorylation. The plates were filtered using a Canberra Packard Unifilter and washed with 2% TCA, dried overnight and counted on a Top Count scintillation counter.
(§3) Test compounds were tested initially at a single dose and active compounds were retested to allow IC50 values to be determined.

TNFα production = test: Human Whole Blood test (LPS-stimulated TNFα production); assay type: cell-based; conditions: inhibition of TNFα production in LPS-stimulated human whole blood
Protocol: The ability of the compounds of this invention to inhibit TNFα production was also assessed in a human whole blood assay. Human whole blood secretes TNFα when stimulated with LPS. This property of blood forms the basis of an assay which is used as a secondary test for compounds which profile as active in the PBMC test.
Heparinised (10 units/ml) human blood was obtained from volunteers. 160 μl whole blood were added to 96 well round-bottom plates (Corning 25850). Compounds were solubilised and serially diluted in RPMI 1640 medium (Gibco) supplemented with 50 units/ml penicillin, 50 μg/ml streptomycin and 2 mM glutamine, as detailed above. 20 μl of each test concentration was added to appropriate wells (triplicate cultures), 20 μl of RPMI 1640 medium supplemented with antibiotics and glutamine was added to control wells. Plates were incubated for 30 minutes at 37° C. (humidified incubator), prior to addition of 20 μl LPS (final concentration 10 μg/ml). RPMI 1640 medium was added to control wells. Six “LPS alone” and four “medium alone” controls were included on each plate. A known TNFα synthesis/secretion inhibitor was included in each test. Plates were incubated for 6 hours at 37° C. (humidified incubator). Plates were centrifuged (2000 rpm for 10 minutes) and 100 μl plasma removed and stored at −70° C. (Corning 25850 plates). TNFα levels were measured by ELISA (see WO92/10190 and Current Protocols in Molecular Biology, vol 2 by Frederick M. Ausbel et al., John Wiley and Sons Inc.). The paired antibodies that were used in the ELIZA were obtained from R&D Systems (catalogue nos. MAB610 anti-human TNFA coating antibody, BAF210 biotinylated anti-human TNFα detect antibody).

p38β = biological target: T2, p38β (Homo sapiens, UniProt Q15759); test: In vitro enzyme assay, p38β; assay type: biochemical; conditions: read-out: IC50 against p38β
T2 construct: Human recombinant p38α and p38β isoforms were produced as 5′ c-myc, 6His tagged proteins; fused on or other part: N-terminal c-myc and 6His tags
T2 sequence (Q15759 whole entry, the tested form may be a part, canonical isoform): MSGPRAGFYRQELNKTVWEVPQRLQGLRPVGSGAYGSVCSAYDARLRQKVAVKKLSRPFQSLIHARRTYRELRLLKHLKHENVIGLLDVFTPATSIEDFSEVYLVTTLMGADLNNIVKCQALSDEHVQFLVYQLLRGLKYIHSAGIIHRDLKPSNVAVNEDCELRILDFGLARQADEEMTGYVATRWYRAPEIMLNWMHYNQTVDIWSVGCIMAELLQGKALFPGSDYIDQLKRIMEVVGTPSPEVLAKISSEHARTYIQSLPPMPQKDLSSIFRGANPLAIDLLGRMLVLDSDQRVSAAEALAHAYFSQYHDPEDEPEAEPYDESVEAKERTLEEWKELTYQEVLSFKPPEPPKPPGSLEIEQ
Protocol: as §1, §2, §3

T1 sequence (Q16539 whole entry): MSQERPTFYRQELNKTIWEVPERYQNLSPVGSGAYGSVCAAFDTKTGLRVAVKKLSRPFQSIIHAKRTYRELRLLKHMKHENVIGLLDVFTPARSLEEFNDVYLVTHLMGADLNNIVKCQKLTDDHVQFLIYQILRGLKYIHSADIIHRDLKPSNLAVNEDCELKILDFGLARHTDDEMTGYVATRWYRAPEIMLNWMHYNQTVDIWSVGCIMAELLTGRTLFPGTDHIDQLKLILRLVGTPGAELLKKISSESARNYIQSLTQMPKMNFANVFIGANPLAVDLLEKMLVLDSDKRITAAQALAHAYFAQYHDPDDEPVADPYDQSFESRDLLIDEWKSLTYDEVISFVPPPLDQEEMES

Row | pIC50 (p38α) | pIC50 (TNFα production) | pIC50 (p38β) | SMILES
1 | ~6.70 | ~5.70 | – | Cc1ccc(NC(=O)c2ccnc(N3CCOCC3)c2)cc1-n1cnc2ccc(N(C)CCCN(C)C)cc2c1=O [6-[N-(3-dimethylaminopropyl)-N-methylamino]-3-[2-methyl-5-(2-morpholinopyrid-4-ylcarbonylamino)phenyl]-3,4-dihydroquinazolin-4-one]
2 | ~7.00 | ~5.15 | – | Cc1ccc(NC(=O)c2ccnc(N3CCOCC3)c2)cc1-n1cnc2c(N(C)CCCN(C)C)cccc2c1=O [8-[-(3-dimethylaminopropyl)-N-methylamino]-3-[2-methyl-5-(2-morpholinopyrid-4-ylcarbonylamino)phenyl]-3,4-dihydroquinazolin-4-one]
3 | – | ~5.30 | ~7.30 | CN(C)CCCN(C)c1ccc2ncn(-c3cccc(NC(=O)c4ccnc(N5CCOCC5)c4)c3)c(=O)c2c1 [6-[N-(3-dimethylaminopropyl)-N-methylamino]-3-[5-(2-morpholinopyrid-4-ylcarbonylamino)phenyl]-3,4-dihydroquinazolin-4-one]
